Biological target: T1, PTP1B (Homo sapiens, UniProt P18031)
T1 construct: gene PTPN1; recombinant PTP1B protein
T1 sequence (P18031 1-435): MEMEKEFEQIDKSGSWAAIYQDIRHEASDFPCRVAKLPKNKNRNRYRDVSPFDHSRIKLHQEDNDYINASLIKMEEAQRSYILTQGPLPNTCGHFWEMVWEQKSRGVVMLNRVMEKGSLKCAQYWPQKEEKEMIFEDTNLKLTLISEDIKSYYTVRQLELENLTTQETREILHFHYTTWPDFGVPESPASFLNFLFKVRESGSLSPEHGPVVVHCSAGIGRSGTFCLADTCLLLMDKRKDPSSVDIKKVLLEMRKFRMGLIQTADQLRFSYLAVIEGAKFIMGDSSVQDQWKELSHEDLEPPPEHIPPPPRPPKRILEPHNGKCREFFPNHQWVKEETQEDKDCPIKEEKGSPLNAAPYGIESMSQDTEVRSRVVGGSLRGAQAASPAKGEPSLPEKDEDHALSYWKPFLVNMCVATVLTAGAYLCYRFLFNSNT
Test: p-nitrophenyl phosphate phosphatase assay with recombinant PTP1B; supported by CETSA in HCT116 lysates (ΔTm -4.[…] °C)
Assay type: biochemical

CCCCCC[n+]1ccn2[c]1[Pt-2]1([c]3ccccc3-c3cccc[n+]31)[c]1n(cc[n+]1CCCCCC)CCC2 [Pt-ER, PlatinER]
IC50: 20.6 ± 1.8 µM

— PMC12833861, “Organoplatinum(II) Type II Immunogenic Cell Death Inducers Target Protein Tyrosine Phosphatase 1B to Drive Immunogenicity” (Journal of the American Chemical Society, 2025)
